In publication PMC11232109, “Synthesis, anticancer evaluation of novel hybrid pyrazole-based chalcones, molecular docking, DNA fragmentation, and gene expression: in vitro studies” (RSC Advances, 2024):
Where “and” joins values, the source holds several entries; their conditions need not be identical. Equal values may be shown once. Marks after values point to notes of the source that are not given here.

Experiments:
Type in all cases: cell-based, human
Bcl-2 = experiment: qPCR gene expression of Bcl-2 in MCF7 cells; details: treatment with IC50 conc., negative control = 1
Protocol: (§1) Total RNA was isolated from breast and pancreatic cancer cell lines according to the manufacturer's protocol using RNeasy Mini Kit (Qiagen) supplemented with the DNaseI (Qiagen) digestion step. To digest DNA residues, the isolated total RNA was treated with one unit of RQ1 RNAse-free DNAse (Invitrogen), re-suspended in DEPC-treated water, and quantified using a spectrophotometer at 260 nm. The purity of total RNA was assessed by the 260/280 nm ratio, which was between 1.8 and 2.1. Moreover, RNA integrity was assured by ethidium bromide-stain analysis of 28S and 18S bands by formaldehyde-containing agarose gel electrophoresis. Complete poly(A)+ RNA isolated from breast and pancreatic cell lines was reverse-transcribed into cDNA in a total volume of 20 μl using the RevertAidTM First Strand cDNA Synthesis Kit (Fermentas). […] Subsequently, the reaction tubes containing RT preparations were flash-cooled in an ice chamber until used for cDNA amplification using a quantitative real-time polymerase chain reaction (qRT-PCR).
(§2) Determination of the breast and pancreatic cell line cDNA copy number was carried out using the StepOne™ Real-Time PCR system from Applied Biosystems (Thermo Fisher Scientific). […] The relative quantification of the target to the reference was performed using the 2^−ΔΔCT method (Yang et al., 2017).[51]

CDK4 = experiment: qPCR gene expression of CDK4 in MCF7 cells; details: treatment with IC50 conc., negative control = 1
Protocol: as §1, §2

P21 = experiment: qPCR gene expression of P21 in MCF7 cells; details: treatment with IC50 conc., negative control = 1
Protocol: as §1, §2

MCF7 cell lines = experiment: DNA fragmentation assay, MCF7; details: for DNA fragmentation, Inhibition (%): MCF7; for DNA fragmentation (%) M ± SEM: MCF7, 24 hours of exposure, −ve control 8.6 ± 0.36; for DNA fragmentation, Change: MCF7, change versus −ve control
Protocol: The DNA fragmentation assay in breast and pancreatic cancer cell lines was performed in accordance with the method of Helmy et al., 2022 (ref. [15]) with some modifications. Briefly, after 24 hours of exposure of breast and pancreatic cancer cell lines to the tested chalcone compounds in different Petri dishes (60 × 15 mm, Greiner), the cells were trypsinized, suspended, homogenized in 1 ml of medium, and centrifuged (10 min at 800 rpm). Low-molecular-weight genomic DNA was extracted as described in Yawata et al., 1998.[52] Approximately 1 × 10^6 cells were plated and treated with the tested substances in various treatments. All the cells (including floating cells) were harvested by trypsinization and washed with Dulbecco's phosphate-buffered saline. Cells were lysed with the lysis buffer containing 10 mM Tris (pH 7.4), 150 mM NaCl, 5 mM EDTA, and 0.5% Triton X-100 for 30 minutes on ice. Lysates were vortexed and cleared by centrifugation at 10 000 g for 20 min. Fragmented DNA in the supernatant was extracted with an equal volume of a neutral phenol/chloroform/isoamyl alcohol mixture (25 : 24 : 1) and analyzed electrophoretically on 2% agarose gels containing 0.1 μg ml^−1 ethidium bromide.

MCF-7 = experiment: Comet assay (DNA damage), breast cancer cell line; details: for DNA damaged cells% (mean ± SEM): MCF-7, comet assay, −ve 9.63 ± 0.64; for No. of cells, Comets: MCF-7, of 405 cells analyzed; for No. of cells, Class 0 / No. of cells, Class 1 / No. of cells, Class 2 / No. of cells, Class 3: MCF-7, of 405 cells; for No. of cells, Class 0: class 0 = no tail; for No. of cells, Class 1: class 1 = tail length < diameter of nucleus; for No. of cells, Class 2: class 2 = tail length between 1× and 2× the diameter of nucleus; for No. of cells, Class 3: class 3 = tail length > 2× the diameter of nucleus
Protocol: (§3) Olive et al. (1990) used pancreatic and breast cancer cell lines to measure the DNA damage using the comet test.[53] Approximately 1.5 × 10^4 cells were imbedded in 0.75% low-gelling-temperature agarose after trypsin treatment to generate a single-cell suspension, which was then quickly pipetted onto a pre-coated microscope slide. Cell samples were lysed in 0.5% SDS, 30 mM EDTA, pH 8.0, for four hours at 50 °C. Samples were electrophoresed for 25 minutes at 0.6 V cm^−1 after being rinsed overnight at room temperature in Tris/borate/EDTA buffer, pH 8.0. Propidium iodide was then added for staining. A fluorescent microscope equipped with a CCD camera was used to observe the slides, and 150 unique comet photos from each sample were examined to determine the tail moment, DNA content, and percentage of DNA in the tail. To find the fraction of cells with DNA damage that resemble comets in each sample, around 100 cells were analyzed. Based on perceived comet tail length migration and relative proportion of DNA in the nucleus, the non-overlapping cells were randomly chosen and visually assigned a score on an arbitrary scale of 0–3. Class 0 = no detectable DNA damage and no tail; class 1 = tail with a length less than the nucleus diameter; class 2 = tail with length between 1× and 2× the nuclear diameter; and class 3 = tail longer than 2× the nucleus diameter.[54]

P53 = experiment: qPCR gene expression of P53 in PACA2 cells; details: treatment with IC50 conc., negative control = 1
Protocol: as §1, §2

BID = experiment: qPCR gene expression of BID in PACA2 cells; details: treatment with IC50 conc., negative control = 1
Protocol: as §1, §2

CCND1 = experiment: qPCR gene expression of CCND1 in PACA2 cells; details: treatment with IC50 conc., negative control = 1
Protocol: as §1, §2

Paca2 = experiment: Comet assay (DNA damage), pancreatic cancer cell line; details: for DNA damaged cells% (mean ± SEM): Paca2, comet assay, −ve 10.12 ± 0.85; for No. of cells, Class 0 / No. of cells, Class 1 / No. of cells, Class 2 / No. of cells, Class 3: Paca2, of 405 cells; for No. of cells, Class 0: class 0 = no tail; for No. of cells, Class 1: class 1 = tail length < diameter of nucleus; for No. of cells, Class 2: class 2 = tail length between 1× and 2× the diameter of nucleus; for No. of cells, Class 3: class 3 = tail length > 2× the diameter of nucleus
Protocol: as §3

Cc1nn(-c2ccccc2)c(C=CC(=O)c2c(-c3cccs3)nn(-c3ccc([N+](=O)[O-])cc3)c2C)c1Cl [Compound 7d, 3-(4-Chloro-3-methyl-1-phenyl-1H-pyrazol-5-yl)-1-(5-methyl-1-(4-nitrophenyl)-3-(thiophen-2-yl)-1H-pyrazol-4-yl)prop-2-en-1-one]
Gene expression Bcl-2 (Bcl-2): 0.64 fold change/GAPDH
Gene expression CDK4 (CDK4): 0.43 fold change/GAPDH
Gene expression P21 (P21): 3.95 fold change/GAPDH
DNA fragmentation, Inhibition (%) (MCF7 cell lines): 20.48%
DNA fragmentation (%) M ± SEM (MCF7 cell lines): 21.8 ± 0.94% and 21.8 ± 0.94^a %
DNA fragmentation, Change (MCF7 cell lines): 13.2
DNA damaged cells% (mean ± SEM) (MCF-7): 25.93 ± 1.08^a %
No. of cells, Comets (MCF-7): 105
No. of cells, Class 0 (MCF-7): 300
No. of cells, Class 1 (MCF-7): 30
No. of cells, Class 2 (MCF-7): 41
No. of cells, Class 3 (MCF-7): 34

Cc1c(C(=O)C=Cc2nn(-c3ccccc3)cc2-c2ccc([N+](=O)[O-])cc2)c(-c2cccs2)nn1-c1ccc([N+](=O)[O-])cc1 [Compound 9e, 1-(5-Methyl-1-(4-nitrophenyl)-3-(thiophen-2-yl)-1H-pyrazol-4-yl)-3-(4-(4-nitrophenyl)-1-phenyl-1H-pyrazol-3-yl)prop-2-en-1-one]
Gene expression P53 (P53): 3.89 fold change/GAPDH
Gene expression BID (BID): 0.48 fold change/GAPDH
Gene expression CCND1 (CCND1): 0.64 fold change/GAPDH
DNA damaged cells% (mean ± SEM) (Paca2): 28.40 ± 1.04% and 28.40 ± 1.04^a %
No. of cells, Comets (Paca2; Paca2, of 405 cells analyzed): 115
No. of cells, Class 0 (Paca2): 290
No. of cells, Class 1 (Paca2): 35
No. of cells, Class 2 (Paca2): 37
No. of cells, Class 3 (Paca2): 43

COc1cccc2c1C(=O)c1c(O)c3c(c(O)c1C2=O)C[C@@](O)(C(=O)CO)C[C@@H]3O[C@H]1C[C@H](N)[C@H](O)[C@H](C)O1 [Doxorubicin, reference compound]
Gene expression Bcl-2 (Bcl-2): 0.56 fold change/GAPDH
Gene expression CDK4 (CDK4): 0.39 fold change/GAPDH
Gene expression P21 (P21): 4.18 fold change/GAPDH
Gene expression P53 (P53): 2.21 fold change/GAPDH
Gene expression BID (BID): 0.69 fold change/GAPDH
Gene expression CCND1 (CCND1): 0.79 fold change/GAPDH
DNA fragmentation, Inhibition (%) (MCF7 cell lines): 23.67%
DNA fragmentation (%) M ± SEM (MCF7 cell lines): 25.2 ± 0.65%
DNA fragmentation (%) M ± SEM (MCF7 cell lines; listed as MCF7 +ve control): 25.2 ± 0.65^a %
DNA fragmentation, Change (MCF7 cell lines): 16.6
DNA damaged cells% (mean ± SEM) (MCF-7; listed as Dox): 21.98 ± 0.91^b %
No. of cells, Comets (MCF-7): 89
No. of cells, Class 0 (MCF-7): 316
No. of cells, Class 1 (MCF-7): 27
No. of cells, Class 2 (MCF-7): 33
No. of cells, Class 3 (MCF-7): 29
DNA damaged cells% (mean ± SEM) (Paca2; listed as Dox): 26.17 ± 1.38% and 26.17 ± 1.38^a %
No. of cells, Class 0 (Paca2): 299
No. of cells, Class 1 (Paca2): 38
No. of cells, Class 2 (Paca2): 32
No. of cells, Class 3 (Paca2): 36
